Reference: patent US7727980B2, “Tricyclic androgen receptor modulator compounds and methods” (priority 2001, dated 2010)
Read-outs that look alike come from different tables or passages of the source.

Legend:
human AR [1] = target: T1, human AR (Homo sapiens, UniProt P10275); experiment: Co-transfection assay, AR agonist activity, CV-1 cells; type: cell-based; design: expressed in transfected cells; host or cells: CV-1 cells (African green monkey kidney fibroblasts), transient transfection with pRShAR; details: for AR Agonist CV-1 Cells Efficacy (%): percent maximal response relative to reference agonist DHT
T1 sequence (P10275 1-920): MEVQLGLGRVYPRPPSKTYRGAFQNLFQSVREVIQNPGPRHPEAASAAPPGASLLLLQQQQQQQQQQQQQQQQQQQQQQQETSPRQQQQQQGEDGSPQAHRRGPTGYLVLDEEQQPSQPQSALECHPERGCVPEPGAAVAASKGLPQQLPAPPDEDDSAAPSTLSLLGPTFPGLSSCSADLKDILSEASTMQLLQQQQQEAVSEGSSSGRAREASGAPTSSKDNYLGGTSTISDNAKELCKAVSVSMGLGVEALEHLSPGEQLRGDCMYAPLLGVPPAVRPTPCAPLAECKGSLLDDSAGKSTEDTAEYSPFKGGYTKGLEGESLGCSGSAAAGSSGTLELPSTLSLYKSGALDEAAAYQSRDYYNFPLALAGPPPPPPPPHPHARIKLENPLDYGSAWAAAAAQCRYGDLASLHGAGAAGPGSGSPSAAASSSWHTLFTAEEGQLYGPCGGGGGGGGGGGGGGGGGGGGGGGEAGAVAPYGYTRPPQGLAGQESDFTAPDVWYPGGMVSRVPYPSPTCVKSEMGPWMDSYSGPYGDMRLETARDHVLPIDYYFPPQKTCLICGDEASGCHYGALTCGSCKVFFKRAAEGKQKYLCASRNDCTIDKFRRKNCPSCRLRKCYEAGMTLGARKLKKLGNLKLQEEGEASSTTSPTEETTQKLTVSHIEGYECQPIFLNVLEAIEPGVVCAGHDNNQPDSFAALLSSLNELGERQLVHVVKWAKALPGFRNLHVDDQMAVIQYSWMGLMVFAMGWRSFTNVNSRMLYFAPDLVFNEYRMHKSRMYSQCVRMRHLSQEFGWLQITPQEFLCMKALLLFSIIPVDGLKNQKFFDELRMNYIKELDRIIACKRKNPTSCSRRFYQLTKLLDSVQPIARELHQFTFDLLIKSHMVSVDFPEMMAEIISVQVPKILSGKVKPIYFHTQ
Excerpt: (§1) The co-transfection assay provides a method for identifying functional agonists and partial agonists which mimic, or antagonists which inhibit, the effect of native hormones and quantifying their activity for responsive IR proteins. In this regard, the co-transfection assay mimics an in vivo system in the laboratory. Importantly, activity in the co-transfection assay correlates very well with known in vivo activity, such that the co-transfection assay functions as a qualitative and quantitative predictor of a tested compounds in vivo pharmacology. See, e.g., T. Berger et al. 41 J. Steroid Biochem. Molec.
(§2) In the co-transfection assay, a cloned cDNA for an IR (e.g., human PR, AR or GR) under the control of a constitutive promoter (e.g., the SV 40 promoter) is introduced by transfection (a procedure to induce cells to take up foreign genes) into a background cell substantially devoid of endogenous IRs. This introduced gene directs the recipient cells to make the IR protein of interest. A second gene is also introduced (co-transfected) into the same cells in conjunction with the IR gene. This second gene, comprising the cDNA for a reporter protein, such as firefly luciferase (LUC), controlled by an appropriate hormone responsive promoter containing a hormone response element (HRE). This reporter plasmid functions as a reporter for the transcription-modulating activity of the target IR. Thus, the reporter acts as a surrogate for the products (mRNA then protein) normally expressed by a gene under control of the target receptor and its native hormone.
(§3) The co-transfection assay can detect small molecule agonists or antagonists of target IRs. Exposing the transfected cells to an agonist ligand compound increases reporter activity in the transfected cells. This activity can be conveniently measured, e.g., by increasing luciferase production, which reflects compound-dependent, IR-mediated increases in reporter transcription. […] To detect antagonists, the co-transfection assay is carried out in the presence of a constant concentration of an agonist to the target IR (e.g., progesterone for PR) known to induce a defined reporter signal. Increasing concentrations of a suspected antagonist will decrease the reporter signal (e.g., luciferase production). The co-transfection assay is therefore useful to detect both agonists and antagonists of specific IRs. Furthermore, it determines not only whether a compound interacts with a particular IR, but whether this interaction mimics (agonizes) or blocks (antagonizes) the effects of the native regulatory molecules on target gene expression, as well as the specificity and strength of this interaction.
(§4) CV-1 cells (African green monkey kidney fibroblasts) were cultured in the presence of Dulbecco's Modified Eagle Medium (DMEM) supplemented with 10% charcoal resin-stripped fetal bovine serum then transferred to 96-well microtiter plates one day prior to transfection.
(§5) The reporter plasmid, MTV-LUC, contains the cDNA for firefly luciferase (LUC) under control of the mouse mammary tumor virus (MTV) long terminal repeat, a conditional promoter containing an androgen response element. See e.g., Berger et al. supra. In addition, pRS-β-Gal, coding for constitutive expression of E. coli β-galactosidase (β-Gal), was included as an internal control for evaluation of transfection efficiency and compound toxicity.
(§6) Six hours after transfection, media was removed and the cells were washed with phosphate-buffered saline (PBS). […] Three to four replicates were used for each sample. Transfections and subsequent procedures were performed on a Biomek 1000 automated laboratory work station.
(§7) After 40 hours, the cells were washed with PBS, lysed with a Triton X-100-based buffer and assayed for LUC and β-Gal activities using a luminometer or spectrophotometer, respectively. For each replicate, the normalized response (NR) was calculated as: LUC response/β-Gal rate • where β-Gal rate=β-Gal·1×10^−5/β-Gal incubation time.

human AR [2] = target: T1, human AR; experiment: Co-transfection assay, AR antagonist activity in presence of DHT, CV-1 cells; type: cell-based; design: expressed in transfected cells; host or cells: CV-1 cells (African green monkey kidney fibroblasts), transient transfection with pRShAR; details: for AR Antagonist CV-1 Cells Efficacy (%): percent maximal inhibition, DHT at its EC50 concentration
Excerpt: as §1, §2, §3, §4, §5, §6, §7

human AR [3] = target: T1, human AR; experiment: AR whole cell competitive binding assay (3H-DHT), transfected COS-1 cells; design: expressed in transfected cells; transient transfection with pRShAR; details: COS-1 cells, 1 nM 3H-DHT, Cheng-Prusoff from IC50
Procedure: AR Binding: For the whole cell binding assay, COS-1 cells in 96-well microtiter plates containing DMEM-10% FBS were transfected as described above with the following plasmid DNA: pRShAR (2 ng/well), pRS-β-Gal (50 ng/well) and pGEM (48 ng/well). Six hours after transfection, media was removed, the cells were washed with PBS and fresh media was added. The next day, the media was changed to DMEM-serum free to remove any endogenous ligand that might be complexed with the receptor in the cells.
Three replicates were used for each sample. […] The remaining media was removed, the cells were washed three times with PBS to remove unbound ligand and cells were lysed with a Triton X-100-based buffer.
For the saturation analyses, the difference between the total binding and the nonspecific binding, normalized by the β-Gal rate, was defined as specific binding. […] The Ki values were determined by application of the Cheng-Prusoff equation to the IC50 values, where: […]
After correcting for non-specific binding, IC50 values were determined. […] The IC50 value was determined graphically from a log-logit plot of the data. The Ki values were determined by application of the Cheng-Prusoff equation to the IC50 values, the labeled ligand concentration and the Kd of the labeled ligand.

[4] = agonist potency or EC50, read-out: AR Agonist CV-1 Cells Potency
[5] = CV-1 cells, antagonist potency or IC50, DHT at its EC50 concentration, read-out: AR Antagonist CV-1 Cells Potency
[6] = AR Agonist CV-1 Cells Potency (nM), agonist potency or EC50
[7] = AR Antagonist CV-1 Cells Potency (nM), CV-1 cells, antagonist potency or IC50, DHT at its EC50 concentration

Row | Compound | EC50 (human AR [1]; [4]) [nM] | AR Agonist CV-1 Cells Efficacy (%) (human AR [1]) | IC50 (human AR [2]; [5]) [nM] | AR Antagonist CV-1 Cells Efficacy (%) (human AR [2]; CV-1 cells) | Ki (human AR [3]; read-out: AR Binding Ki) [nM] | EC50 (human AR [1]; [6]) [nM] | IC50 (human AR [2]; [7]) [nM] | Ki (human AR [3]; AR Binding Ki (nM)) [nM] | IC50 (human AR [2]) [nM]
1 | 6-Methyl-4-trifluoromethyl-7H-pyrrolo[3,2-f]quinolin-2(1H)-one [Compound 112] | > 10000 | na (na = not active (i.e. efficacy of <20 and potency of >10,000)) | 10 | 75% | 119 | – | – | – | –
2 | O=c1cc(C(F)(F)F)c2c3c(ccc2[nH]1)N(CC(F)(F)F)CC3c1ccccc1 (racemic) [Compound 141, (±)-5,6-Dihydro-5-phenyl-7-(2,2,2-trifluoroethyl)-4-trifluoromethyl-7H-pyrrolo[3,2-f]quinolin-2(1H)-one] | – | 46% | – | 44% | – | 86 | 34 | 97 | –
3 | C=CCc1c(C)[nH]c2c1ccc1[nH]c(=O)cc(C(F)(F)F)c12 [Compound 173, 7-Allyl-6-methyl-4-trifluoromethyl-5H-pyrrolo[2,3-f]quinolin-2(1H)-one] | – | 41% | – | 56% | – | 138 | 1 | 80 | –
4 | CCCC1C(CC)c2c(ccc3[nH]c(=O)cc(C(F)(F)F)c23)N1CC(F)(F)F (racemic) [Compound 146, (±)-5,6-Dihydro-5-ethyl-6-propyl-7-(2,2,2-trifluoroethyl)-4-trifluoromethyl-7H-pyrrolo[3,2-f]quinolin-2(1H)-one] | – | 38% | – | 66% | – | 49 | 1 | 75 | –
5 | O=c1cc(C(F)(F)F)c2c3c(ccc2[nH]1)N(Cc1ccoc1)C1CCCC31 (racemic) [Compound 126, (±)-4c,5,6,7,7a(cis),8-Hexahydro-8-(3-furanylmethyl)-4-trifluoromethyl-cyclopentano[g]pyrrolo[3,2-f]quinolin-2(1H)-one] | – | 53% | – | na (na = not active (i.e. efficacy of <20 and potency of >10,000)) | – | – | > 10000 | 2.3 | –
6 | CCCN1CCCc2cc3[nH]c(=O)cc(C(F)(F)F)c3cc21 [Compound 199, 4-Trifluoromethyl-6-propyl-6,7,8,9-tetrahydropyrido[2,3-g]quinolin-2(1H)-one] | – | 70% | – | na (na = not active (i.e. efficacy of <20 and potency of >10,000)) | – | 42 | > 10000 | 236 | –
7 | 5-Allyl-6-methyl-4-trifluoromethyl-7H-pyrrolo[3,2-f]quinolin-2(1H)-one [Compound 114] | > 10000 | na (na = not active (i.e. efficacy of <20 and potency of >10,000)) | 6.6 | 81% | 81 | – | – | – | –
8 | CCC1CCOc2c1ccc1[nH]c(=O)cc(C)c21 (racemic) [Compound 215, (±)-7,8-Dihydro-8-ethyl-4-methyl-6H-pyrano[2,3-f]quinolin-2(1H)-one] | – | 28% | – | 77% | – | 2070 | – | 47 | 17
9 | CC1(C)CCc2c(ccc3[nH]c(=O)cc(C(F)(F)F)c23)N1 [Compound 104, 5,6,7,8-Tetrahydro-7,7-dimethyl-4-trifluoromethylpyridino[3,2-f]quinolin-2(1H)-one] | – | 78% | – | 50% | – | 183 | 1.8 | 15 | –
10 | 6-Ethyl-5-methyl-7-(2,2,2-trifluoroethyl)-7H-pyrrolo[3,2-f]quinolin-2(1H)-one [Compound 151] | 120 | 36% | 5.9 | 57% | 48 | – | – | – | –
11 | (+)-6,7-Dihydro-6-ethyl-4-trifluoromethyl-8H-pyrano[3,2-g]quinolin-2(1H)-one [Compound 218] | 10 | 82% | > 10000 | na (na = not active (i.e. efficacy of <20 and potency of >10,000)) | 4.1 | – | – | – | –
12 | CCC1C(C)c2c(ccc3[nH]c(=O)cc(C(F)(F)F)c23)N1CC(F)(F)F (racemic) [Compound 134, (±)-5,6-cis-Dihydro-6-ethyl-5-methyl-7-(2,2,2-trifluoroethyl)-4-trifluoromethyl-7H-pyrrolo[3,2-f]quinolin-2(1H)-one] | – | 70% | – | na (na = not active (i.e. efficacy of <20 and potency of >10,000)) | – | 4.2 | > 10000 | 6.8 | –
